Reference: patent publication EP4813381A1, “PHARMACEUTICAL USE OF GUAIANE SESQUITERPENE DERIVATIVE” (Nanjing University Of Chinese Medicine, priority 2023, dated 2025)

Key:
[1] = system: chronic kidney injury induced by unilateral ureteral ligation; assay: Unilateral ureteral ligation (UUO) chronic kidney injury model in mice: Scr and BUN; type: in vivo, C57BL/6 mice; settings: serum, 14 days
4T1 cells = type: in vivo, BALB/c mice; settings: 4T1, oral 40 µmol/kg/day, 3 weeks
Method: 4T1 cells were cultured and expanded in vitro. […] A 100 µL aliquot of this suspension was injected subcutaneously into the left forelimb axilla of female BALB/c mice. […] Daily oral administration was performed for 3 weeks. During the treatment period, mouse body weight and tumor diameter were measured daily. At the end of the experiment, mice were euthanized by cervical dislocation, and tumors were removed for weighing. Tumor volume (TV) was calculated using the formula: TV = 1/2 × a × b^2, where a represents the longest diameter of the tumor and b represents the shortest diameter.

[2] = system: renal injury markers (Ngal, Havcr1), inflammatory cytokines (TNF, IL-6, IL-1), fibrosis-related factors (α-Sma, Col1a1, Tgfb1); assay: Unilateral ureteral ligation (UUO) chronic kidney injury model in mice: Q-PCR of kidney tissue; type: in vivo, C57BL/6 mice; set-up: Tnf / Il1 / Il6: unit not given here; settings: kidney mRNA
[3] = system: acute kidney injury induced by folic acid; assay: Folic acid acute kidney injury model in mice: serum creatinine (Scr) and blood urea nitrogen (BUN); type: in vivo, C57BL/6 mice; settings: acute model (FA), 3 days
[4] = system: renal injury markers (Ngal, Havcr1), inflammatory cytokines (TNF, IL-6, IL-1), fibrosis-related factors (α-Sma, Col1a1, Tgfb1); assay: Folic acid acute kidney injury model in mice: Q-PCR of kidney tissue; type: in vivo, C57BL/6 mice; set-up: Tnf / Il1 / Il6: unit not given here; settings: kidney mRNA, acute model (FA)
Rat mast cells (RBL-2H3) = assay: Mast cell degranulation test (anti-DNP IgE / DNP-HSA); type: cell-based; settings: RBL-2H3, IgE+HSA, 4 h
Method: Rat mast cells (RBL-2H3) were cultured routinely in DMEM medium containing 10% FBS within a 5% CO2 incubator. Upon reaching 70-80% confluence, cells were uniformly seeded at a density of 1 × 10^5 cells/mL into 6-well plates (2 mL per well), divided into the following groups: Normal, IgE+HSA, Compound 1 (0.01, 0.1, 1, 10 µM). Mast cells were sensitized with 500 µg/L anti-DNP IgE for 12 h. washed with PBS, and cultured for an additional 12 h with 100 µg/L DNP-HSA. Compound 1 at the specified concentrations was then added. […]

MDSCs = assay: Inhibition of MDSC chemotaxis (Transwell, Hepa1-6 tumor-conditioned medium); type: cell-based, mice; settings: 12 h treatment, 24 h Transwell
Method: Hepa1-6 mouse hepatocellular carcinoma cells were uniformly seeded into 6-well plates. After cells reached confluence, supernatant was aspirated, and 1-1.5 mL fresh medium was added to each well. Following 24 h culture, supernatant was collected, centrifuged at 1600 rpm for 5 min, aspirated, and filtered through a 0.22 µm membrane to obtain tumor-conditioned medium for subsequent use. Euthanize mice by cervical dislocation and immerse in 75% ethanol solution for 5 min. Under sterile conditions, remove the tibia, cut both ends of the bone, and aspirate the bone marrow into a 1 mL syringe. Repeat flushing into a 15 mL centrifuge tube. Centrifuge at 1600 rpm for 5 min to collect bone marrow cells. Wash twice with 1×PBS. Resuspend cells in complete RPMI 1640 medium containing cytokines GM-CSF (10 ng/mL) and IL-4 (10 ng/mL) to stimulate differentiation into MDSCs. Count cells, adjust density to 1×10^6 cells/mL, and uniformly seed into 24-well plates at 300 µL per well. […] Centrifuge at 1600 rpm for 5 min, remove supernatant, resuspend cells in 300 µL fresh medium, and place into Transwell chambers. Add 600 µL normal medium (control group) or tumor-conditioned medium (model group) to the lower chamber. Co-culture for 24 h.

[5] = system: fibrosis-related factors (Acta2, Col1a1, Tgfb1); assay: CCl4 acute liver injury model in mice: Q-PCR of fibrosis-related factors in liver; type: in vivo, C57BL/6 mice; settings: liver mRNA
Method: They were acclimated for 7 days before use in experiments. • Experimental Methods: Establishment of Acute Liver Injury Model in Mice and Group-Specific Drug Administration • Mice were randomly assigned to groups. One group was arbitrarily designated as the normal group, while the remaining groups served as model group, Compound 1 group, Hydrochloride 20 group, Fumarate 21 group, and Silibinin group, with 6 mice per group. Except for the normal group receiving 10 mL olive oil/kg via injection, all other mice received 0.5 mL CCl4 + 9.5 mL olive oil/kg body weight via intraperitoneal injection, maintaining a CCl4 to olive oil ratio of 1:19. Starting from day 1 of modeling, Compound 1, Hydrochloride 20, and Fumarate 21 were administered orally for 3 consecutive days. […] The blood was allowed to stand at room temperature for 2 hours, then centrifuged at 3000 rpm for 20 minutes. Serum was aspirated, aliquoted, and stored at -70 °C for future use. After blood collection, euthanize mice by cervical dislocation. Perform laparotomy to remove the liver. Rinse twice with pre-chilled PBS. Excise the left hepatic lobe tissue. […] Store remaining tissue at -70 °C for future use. • Serum AST and ALT Assay: Use 10 µL of each sample for testing. Determine mouse serum AST and ALT levels according to the operating manual. Measure absorbance at 510 nm using an enzyme-linked immunosorbent assay (ELISA) reader. Calculate sample concentration (U/L) based on the standard curve.
Q-PCR Analysis: Tissue total RNA extraction, cDNA synthesis, and PCR amplification methods are identical to Example 4. Additional primer information is as follows:
Data Statistics: All data are expressed as means ± standard error of the mean (S.E.M.). Differences were analyzed for significance using analysis of variance (ANOVA). For groups showing significant differences in ANOVA, one-way ANOVA followed by Dunnett's test was performed to compare intergroup differences.

CN(C)C[C@@H]1C(=O)O[C@H]2[C@H]1CC[C@@]1(C)C[C@]13CC[C@@](C)(O)[C@H]23 [compound 20] was tested, and the BUN ([1]; oral gavage 1 mg/kg) was 9.39±0.92, the Scr ([1]; oral gavage 1 mg/kg) was 64.50±7.13 and the antitumor effects (4T1 cells) was “no significant antitumor effects”. The α-Sma ([2]; oral 1 mg/kg, 1 mg/kg) was 1.26±0.18, the BUN ([3]; oral gavage 1 mg/kg) was 16.74±1.42 and the Scr ([3]; oral gavage 1 mg/kg) was 64.94±9.68.
In the case of C=C1C(=O)O[C@@H]2[C@@H]3[C@]4(CC[C@@]3(C)O)C[C@]4(C)CC[C@@H]12 [compound 1], the Col1a1 ([4]; oral 0.1 mg/kg) is reported as 1.64±0.16, the Havcr1 ([4]; oral 0.1 mg/kg) is reported as 175.10±17.63 and the Il1 ([4]; oral 0.1 mg/kg) is reported as 2.62±0.56. It also gave an Il6 ([4]; oral 0.1 mg/kg) of 8.02±0.77, a Ngal ([4]; oral 0.1 mg/kg) of 30.52±5.05 and a Tgfb1 ([4]; oral 0.1 mg/kg) of 1.96±0.17. It also gave a Tnf ([4]; oral 0.1 mg/kg) of 2.89±0.59, a α-Sma ([4]; oral 0.1 mg/kg) of 1.82±0.19 and a Col1a1 ([4]; oral 1 mg/kg) of 1.32±0.15. It also gave a Havcr1 ([4]; oral 1 mg/kg) of 99.99±7.98, an Il1 ([4]; oral 1 mg/kg) of 1.72±0.45 and an Il6 ([4]; oral 1 mg/kg) of 3.98±0.59. It also gave a Ngal ([4]; oral 1 mg/kg) of 20.17±2.21, a Tgfb1 ([4]; oral 1 mg/kg) of 1.36±0.10 and a Tnf ([4]; oral 1 mg/kg) of 2.76±0.71. For the same molecule, the α-Sma ([4]; oral 1 mg/kg) was 1.42±0.11, the BUN ([1]; oral gavage 0.1 mg/kg) was 18.41±1.82 and the Scr ([1]; oral gavage 0.1 mg/kg) was 176.35±17.11. The BUN ([1]; oral gavage 1 mg/kg) was 11.01±1.54, the Scr ([1]; oral gavage 1 mg/kg) was 104.65±16.26 and the β-Glucosaminidase (Rat mast cells (RBL-2H3); 0.01 µM) was 13.24 ± 0.08 ng/mL. It also gave a β-Glucosaminidase (Rat mast cells (RBL-2H3); 0.1 µM) of 12.08 ± 0.12 ng/mL, a β-Glucosaminidase (Rat mast cells (RBL-2H3); 1 µM) of 10.65 ± 0.05 ng/mL and a β-Glucosaminidase (Rat mast cells (RBL-2H3); 10 µM) of 7.13 ± 0.07 ng/mL. For the same molecule, the “Suppression Rate (%)” value (MDSCs; 1 µM) was 42.3%, the “Suppression Rate (%)” value (MDSCs; 10 µM) was 83.3% and the Col1a1 ([2]; oral 0.1 mg/kg) was 16.09±3.57. For the same molecule, the Havcr1 ([2]; oral 0.1 mg/kg) was 12.56±1.95, the Il1 ([2]; oral 0.1 mg/kg) was 6.05±0.49 and the Il6 ([2]; oral 0.1 mg/kg) was 16.52±1.69. The Ngal ([2]; oral 0.1 mg/kg) was 37.82±4.85, the Tgfb1 ([2]; oral 0.1 mg/kg) was 2.04±0.24 and the Tnf ([2]; oral 0.1 mg/kg) was 6.41±1.46. For the same molecule, the α-Sma ([2]; oral 0.1 mg/kg) was 2.32±0.54, the Col1a1 ([2]; oral 1 mg/kg) was 9.45±1.03 and the Havcr1 ([2]; oral 1 mg/kg) was 8.54±1.38. The Il1 ([2]; oral 1 mg/kg) was 3.99±0.31, the Il6 ([2]; oral 1 mg/kg) was 6.50±1.51 and the Ngal ([2]; oral 1 mg/kg) was 21.66±6.00. For the same molecule, the Tgfb1 ([2]; oral 1 mg/kg) was 1.55±0.19, the Tnf ([2]; oral 1 mg/kg) was 6.59±1.19 and the α-Sma ([2]; oral 1 mg/kg) was 1.54±0.12. The BUN ([3]; oral gavage 0.1 mg/kg) was 31.46±2.54, the Scr ([3]; oral gavage 0.1 mg/kg) was 108.48±11.76 and the BUN ([3]; oral gavage 1 mg/kg) was 21.33±2.21. The Scr ([3]; oral gavage 1 mg/kg) was 71.95±5.74, the Acta2 ([5]; oral 0.1 mg/kg) was 3.82±0.88 and the Col1a1 ([5]; oral 0.1 mg/kg) was 2.28±0.80. The Tgfb1 ([5]; oral 0.1 mg/kg) was 1.39±0.58, the Acta2 ([5]; oral 1 mg/kg) was 2.34±0.16 and the Col1a1 ([5]; oral 1 mg/kg) was 1.40±0.31. For the same molecule, the Tgfb1 ([5]; oral 1 mg/kg) was 1.08±0.21.
